According to ChEMBL document CHEMBL5331043, “A comprehensive review on acridone based derivatives as future anti-cancer agents and their structure activity relationships” (Eur J Med Chem, 2022):
≈ marks a conversion by molar mass, not a printed value. Where “and” joins values, the source holds several entries; their conditions need not be identical. Identical values can stand only once.

Tests used:
UACC-62 = assay: Cytotoxicity against human UACC-62 cells; format: functional; conditions: read-out: LC50 (the source's name)
NCI-H23 = assay: Cytotoxicity against human NCI-H23 cells; format: functional; conditions: read-out: LC50 (the source's name)
A498 = assay: Cytotoxicity against human A498 cells; format: functional; conditions: read-out: LC50 (the source's name)
M14 = assay: Cytotoxicity against human M14 cells; format: functional; conditions: read-out: LC50 (the source's name)
MCF7 [1] = assay: Cytotoxicity against human MCF7 cells assessed as reduction in cell viability incubated for 72 hrs by MTT assay; format: functional, cell-based; conditions: MCF7, 72 h
MDA-MB-231 = assay: Cytotoxicity against human MDA-MB-231 cells assessed as reduction in cell viability incubated for 72 hrs by MTT assay; format: functional, cell-based; conditions: MDA-MB-231, 72 h
MCF7-DOX [2] = assay: Cytotoxicity against human MCF7-DOX cells; format: functional, cell-based
MCF7 [3] = assay: Cytotoxicity against human wild type MCF7 cells; format: functional, cell-based
[4] = Cytotoxicity against human MCF7/Mitox cells; format: functional, cell-based
[5] = target: Stimulator of interferon genes protein (Homo sapiens, UniProt Q86WV6); assay: Activation of STING pathway in human 293T-hSTING-R232 cells incubated for 48 hrs by QUANTI-Luc assay; format: cell-based, 293T-hSTING-R232 cell
Sequence of Stimulator of interferon genes protein (Q86WV6 whole entry): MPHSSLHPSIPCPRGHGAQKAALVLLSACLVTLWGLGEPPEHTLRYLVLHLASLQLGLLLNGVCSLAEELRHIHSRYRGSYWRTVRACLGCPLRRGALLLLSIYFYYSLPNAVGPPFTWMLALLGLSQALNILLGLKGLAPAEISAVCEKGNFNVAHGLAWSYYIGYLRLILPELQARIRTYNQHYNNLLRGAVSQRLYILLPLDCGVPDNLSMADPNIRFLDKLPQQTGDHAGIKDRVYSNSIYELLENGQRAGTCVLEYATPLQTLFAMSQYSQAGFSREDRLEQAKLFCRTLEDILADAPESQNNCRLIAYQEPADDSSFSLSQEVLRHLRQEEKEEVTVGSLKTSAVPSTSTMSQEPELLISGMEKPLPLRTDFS

[6] = Cytotoxicity against human MDA-MB-231/BCRP cells assessed as reduction in cell growth by resazurin reduction assay; format: functional, cell-based
HL-60 [7] = assay: Cytotoxicity against human HL-60 cells assessed as cell growth inhibition incubated for 72 hrs by tryphan blue staining based analysis; format: functional; conditions: HL-60, 72 h
MCF7-DOX [8] = assay: Cytotoxicity against human doxorubicin resistant MCF7-DOX cells assessed as reduction in cell viability incubated for 72 hrs by SRB assay; format: functional, cell-based
[9] = Cytotoxicity against human mitoxantrone resistant human MCF7/Mitox cells assessed as reduction in cell viability incubated for 72 hrs by SRB assay; format: functional, cell-based
MCF7 [10] = assay: Cytotoxicity against human wild type MCF7 cells assessed as reduction in cell viability measured after 72 hrs by SRB assay; format: functional, cell-based; conditions: MCF7, 72 h
PC-3 [11] = assay: Antiproliferative activity against human PC-3 cells assessed as reduction in cell viability measured after 24 hrs by MTT assay; format: functional, cell-based; conditions: PC-3, 24 h
MCF7 [12] = assay: Antiproliferative activity against human MCF7 cells assessed as reduction in cell viability incubated for 48 hrs by MTT assay; format: functional, cell-based; conditions: MCF7, 48 h
[13] = target: MAP/microtubule affinity-regulating kinase 4 (Homo sapiens, UniProt Q96L34); assay: Inhibition of human MARK4 ATPase activity using ATP as substrate incubated for 10 to 20 mins by Biomol green reagent based ELISA analysis
Sequence of MAP/microtubule affinity-regulating kinase 4 (Q96L34 whole entry): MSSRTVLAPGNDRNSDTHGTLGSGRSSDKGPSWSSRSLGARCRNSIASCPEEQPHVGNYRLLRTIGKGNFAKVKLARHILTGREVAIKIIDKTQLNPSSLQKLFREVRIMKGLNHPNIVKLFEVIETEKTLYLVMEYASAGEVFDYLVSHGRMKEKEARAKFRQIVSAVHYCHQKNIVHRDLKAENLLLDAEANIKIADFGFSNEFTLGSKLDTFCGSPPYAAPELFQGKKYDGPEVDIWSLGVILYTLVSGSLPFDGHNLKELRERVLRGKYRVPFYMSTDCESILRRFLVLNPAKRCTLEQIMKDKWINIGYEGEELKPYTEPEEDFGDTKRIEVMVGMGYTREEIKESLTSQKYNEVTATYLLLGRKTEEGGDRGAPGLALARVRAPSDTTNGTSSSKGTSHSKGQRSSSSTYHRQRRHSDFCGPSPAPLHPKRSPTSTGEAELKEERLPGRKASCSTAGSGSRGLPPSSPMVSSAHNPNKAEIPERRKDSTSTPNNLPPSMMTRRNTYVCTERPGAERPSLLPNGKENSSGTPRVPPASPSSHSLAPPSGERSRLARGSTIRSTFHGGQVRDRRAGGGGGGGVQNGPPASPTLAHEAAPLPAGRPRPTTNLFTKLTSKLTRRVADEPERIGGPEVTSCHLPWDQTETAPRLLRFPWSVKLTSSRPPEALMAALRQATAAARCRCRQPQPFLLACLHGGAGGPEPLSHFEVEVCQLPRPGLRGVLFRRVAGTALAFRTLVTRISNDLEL

SW1573 = assay: Cytotoxicity against human SW1573 cells assessed as reduction in cell viability incubated for 72 hrs by SRB assay; format: functional, cell-based; conditions: SW1573, 72 h
HL-60 [14] = assay: Anticancer activity against human HL-60 cells assessed as cell growth inhibition incubated for 72 hrs by MTT assay; format: functional, cell-based; conditions: HL-60, 72 h
P388 = assay: Cytotoxicity against mouse P388 cells; format: functional, cell-based
HL-60 [15] = assay: Cytotoxicity against human HL-60 cells assessed as cell growth inhibition incubated for 72 hrs by SRB assay; format: functional, cell-based; conditions: HL-60, 72 h
HL60/ADR = assay: Cytotoxicity against drug resistant human HL60/ADR cells assessed as inhibition of cell growth incubated for 72 hrs by SRB assay; format: functional, cell-based
[16] = Cytotoxicity against drug resistant human HL60/VCR assessed as inhibition of cell growth incubated for 72 hrs by SRB assay; format: functional, cell-based
CCRF-CEM = assay: Cytotoxicity against human CCRF-CEM cells assessed as cell growth inhibition; format: functional, cell-based
[17] = Cytotoxicity against human KB-ChR-8-5 cells assessed as reduction in cell growth incubated for 7 days in presence of vinblastine; format: functional, cell-based; conditions: KB-ChR-8-5, 168 h
MCF7 [18] = assay: Cytotoxicity against human MCF7 cells assessed as reduction in cell growth incubated for 72 hrs by SRB assay; format: functional, cell-based; conditions: MCF7, 72 h
MCF7 [19] = assay: Cytotoxicity against human MCF7 cells assessed as cell growth inhibition incubated for 72 hrs by SRB assay; format: functional, cell-based; conditions: MCF7, 72 h
[20] = Cytotoxicity against human SW1398 cells assessed as cell growth inhibition incubated for 72 hrs by SRB assay; format: functional, cell-based; conditions: SW1398, 72 h
WiDr = assay: Cytotoxicity against human WiDr cells assessed as cell growth inhibition incubated for 72 hrs by SRB assay; format: functional, cell-based
Raji = assay: Antitumor activity against human Raji cells xenografted in ICR mouse assessed as reduction in tumor growth measured after 20 weeks; format: functional; parameters: scale not given: the % may be the effect or the level left
HepG2 [21] = assay: Cytotoxicity against human HepG2 cells assessed as reduction in cell viability incubated for 24 hrs by SRB assay; format: functional, cell-based; conditions: HepG2, 24 h
[22] = Cytotoxicity against human KKU-213C assessed as reduction in cell viability incubated for 24 hrs by SRB assay; format: functional, cell-based
HepG2 [23] = assay: Cytotoxicity against human HepG2 cells assessed as reduction in cell viability incubated for 48 hrs by alamar blue reagent based fluorescence assay; format: functional; conditions: HepG2, 48 h
MCF7 [24] = assay: Cytotoxicity against human MCF7 cells assessed as reduction in cell viability incubated for 48 hrs by alamar blue reagent based fluorescence assay; format: functional; conditions: MCF7, 48 h
MCF7 [25] = assay: Cytotoxicity against human MCF7 cells assessed as reduction in cell viability by SRB assay; format: functional, cell-based
MCF7 [26] = assay: Antitumor activity against human MCF7 cells xenografted in BALB/c nude mouse assessed as inhibition of tumor growth at 1 mg/kg, ip administered once daily for 21 days; format: functional; conditions: MCF7, 504 h, time 21 day, read-out: TGI
MCF7 [27] = assay: Cytotoxicity against human MCF7 cells assessed as reduction in cell viability measured after 72 hrs by MTT assay; format: functional, cell-based; conditions: MCF7, 72 h
HeLa = assay: Cytotoxicity against human HeLa cells assessed as reduction in cell viability measured after 72 hrs by MTT assay; format: functional, cell-based
A-431 = assay: Cytotoxicity against human A-431 cells assessed as reduction in cell viability measured after 72 hrs by MTT assay; format: functional, cell-based; conditions: A-431, 72 h
MCF7 [28] = assay: Antiproliferative activity against human MCF7 cells assessed as reduction in cell viability incubated for 72 hrs by MTT assay; format: functional, cell-based; conditions: MCF7, 72 h
PC-3 [29] = assay: Antiproliferative activity against human PC-3 cells assessed as reduction in cell viability incubated for 72 hrs by MTT assay; format: functional, cell-based; conditions: PC-3, 72 h
A549 = assay: Antiproliferative activity against human A549 cells assessed as reduction in cell viability incubated for 72 hrs by MTT assay; format: functional, cell-based; conditions: A549, 72 h
HepG2 [30] = assay: Antiproliferative activity against human HepG2 cells assessed as reduction in cell viability incubated for 72 hrs by MTT assay; format: functional, cell-based; conditions: HepG2, 72 h

COc1cc2c(cc1OCCCNC(=O)c1cccc3c(O)c4ccccc4nc13)N=C[C@@H]1CCCN1C2=O
CC50 (UACC-62): < 0.01 µM | CC50 (NCI-H23): 0.07 µM | CC50 (A498): 0.05 µM | CC50 (M14): < 0.01 µM

CCOC(=O)c1c(C)nc(NNC(=O)c2cccc3c(=O)c4ccccc4[nH]c23)nc1-c1ccc(F)cc1
IC50 (MCF7 [1]): 7.3 µM

CCOC(=O)c1c(C)nc(NNC(=O)c2cccc3c(=O)c4ccccc4[nH]c23)nc1-c1ccccc1F
IC50 (MDA-MB-231): 7.12 µM

CCOC(=O)c1c(C)nc(NNC(=O)c2cccc3c(=O)c4ccccc4[nH]c23)nc1-c1ccc(OC)cc1
IC50 (MDA-MB-231): 6.28 µM

Cc1ccc(NC(=O)c2cccc3c(=O)c4ccccc4[nH]c23)cc1
IC50 (MCF7-DOX [2]): 8.3 µM | IC50 (MCF7 [3]): 6.5 µM | IC50 [4]: 7.4 µM

COc1cc2c(=O)c3cccc(CC(=O)O)c3[nH]c2c(C)c1C
EC50 [5]: 134 µM

COc1cc(OC)c2c(=O)c3ccccc3n(C)c2c1
IC50 [6]: 3.38 µM

CCOC(=O)c1c(C)nc(NNC(=O)c2cccc3c(=O)c4ccccc4[nH]c23)nc1-c1ccc(CC(C)C)cc1
IC50 (MCF7 [1]): 4.32 µM | IC50 (MDA-MB-231): 8.61 µM

CCN(CC)CCCCn1c2ccccc2c(=O)c2c(OC(C)=O)cc(OC(C)=O)cc21
IC50 (HL-60 [7]): 0.45 µM

O=C(c1ccc2c(c1)c(=O)c1ccccc1n2CCCCO[N+](=O)[O-])N1CCOCC1
IC50 (MCF7-DOX [8]): > 1.9 µM | IC50 [9]: 0.8 µM and > 2.7 µM | IC50 (MCF7 [10]): 0.8 µM

CN(C)CCNC(=O)c1ccc([N+](=O)[O-])c2[nH]c3ccccc3c(=O)c12
IC50 (PC-3 [11]): 1.2 µM

Cc1ccc(NC(=O)Cn2c3ccccc3c(=O)c3cc(C)ccc32)cc1
IC50 (MCF7 [12]): 5.2 µM | IC50 [13]: 1.8 µM

O=C(NN1CCN(c2ccccc2)CC1)c1cccc2c(=O)c3ccccc3[nH]c12
IC50 (MCF7-DOX [2]): 6.6 µM | IC50 (MCF7 [3]): 4.5 µM | IC50 [4]: 5.1 µM

O=c1c2ccccc2n(CCCCN2CCN(CCO)CC2)c2c(F)cccc12
IC50 (SW1573): 5.1 µM

N#Cc1c(F)c(Cl)c2[nH]c3ccccc3c(=O)c2c1F
IC50 (HL-60 [14]): 0.007 µM

CN(C)CCn1c(=O)c2cc(N)cc3c(=O)c4ccccc4n(c1=O)c32
IC50 (P388): 63 µM

CC(=O)Nc1ccc2[nH]c3c(C(=O)NCCN(C)C)cccc3c(=O)c2c1
IC50 (P388): 22 µM

O=c1c2ccccc2n(CCCCN2CCN(CCO)CC2)c2c(Cl)cccc12
IC50 (HL-60 [15]): 0.45 µM | IC50 (HL60/ADR): 1.07 µM | IC50 [16]: 0.49 µM

CCN(CC)CCCCn1c2ccccc2c(=O)c2cc(F)ccc21
IC50 (HL-60 [7]): 0.51 µM

COc1cc(Cn2c3ccc(C(=O)CCN4CCCC4)cc3c(=O)c3cc(C(=O)NCCN4CCCC4)ccc32)cc(OC)c1
IC50 (CCRF-CEM): 0.28 µM

CCN(CC)CCNC(=O)c1ccc([N+](=O)[O-])c2[nH]c3ccccc3c(=O)c12
IC50 (PC-3 [11]): 2 µM

O=C(c1cccc2c(=O)c3ccccc3[nH]c12)N1CCN(c2ccccc2)CC1
IC50 (MCF7-DOX [2]): 6.5 µM | IC50 (MCF7 [3]): 4.5 µM | IC50 [4]: 5.1 µM

CC(=O)Nc1cc2c(=O)c3ccccc3n3c(=O)n(CCN(C)C)c(=O)c(c1)c23
IC50 (P388): 0.86 µM

O=c1c2ccccc2n(CCCCN2CCN(CCO)CC2)c2ccc(Br)cc12
IC50 [17]: 3.7 µM

O=C(NC(=O)n1c(-c2ccccc2)nc2ccc(Br)cc2c1=O)c1cccc2c(=O)c3ccccc3[nH]c12
IC50 (MCF7 [18]): 2.9 µM | IC50 (MCF7 [19]): 7.9 µM | IC50 [20]: 6 µM | IC50 (WiDr): 9.8 µM

COc1ccc(CNC(=O)Cn2c3ccccc3c(=O)c3cc(C)ccc32)cc1
IC50 (MCF7 [12]): 5.2 µM | IC50 [13]: 1.8 µM

CC(C)=CCc1c(O)c(CC=C(C)C)c2c(c1O)c(=O)c1ccccc1n2C
Activity (Raji): 48%

Cc1ccc2c(c1)c(=O)c1ccccc1n2CC(=O)NCc1ccccc1
IC50 (MCF7 [12]): 5.2 µM

COc1cc2[nH]c3c(O)cccc3c(=O)c2c(O)c1CC=C(C)C
IC50 (HepG2 [21]): 1.43 µg/mL (≈ 4.4 µM) | IC50 [22]: 1.43 µg/mL (≈ 4.4 µM)

COc1cc(O)c(OC)c2c1c(=O)c1cccc(O)c1n2C
IC50 (HepG2 [23]): 0.22 µM | IC50 (MCF7 [24]): 0.22 µM

COc1cccc2c(=O)c3ccccc3n(CCCCN3CCN(CCO)CC3)c12
IC50 [17]: < 6 µM

Cc1ccc2c(c1)c(=O)c1ccccc1n2CCCCN(CCO)CCO
IC50 (MCF7 [25]): 6.1 µM

Cc1cccc2c(=O)c3ccccc3n(CCCCN(CCO)CCO)c12
IC50 (MCF7 [25]): 8.1 µM

O=c1c2ccccc2[nH]c2ccccc12 [ACRIDONE]
inhibition in vivo at 1 mg/kg (MCF7 [26]): 29%

COc1cc2c(c(O)c1OC)c(=O)c1ccccc1n2C [ARBORININE]
IC50 (MCF7 [27]): 1.84 µM | IC50 (HeLa): 1.84 µM | IC50 (A-431): 1.84 µM

COc1c(O)ccc2c(=O)c3c(O)cc4c(c3n(C)c12)C=CC(C)(C)O4 [CITRACRIDONE I]
IC50 (MCF7 [28]): 12.5 µM | IC50 (PC-3 [29]): 12.5 µM | IC50 (A549): 12.5 µM | IC50 (HepG2 [30]): 12.5 µM

COc1cc(O)c2c(=O)c3cccc(O)c3n(C)c2c1OC [CITRUSININE-I]
IC50 (HepG2 [23]): 0.22 µM | IC50 (MCF7 [24]): 0.22 µM
